Assay results: PubChem BioAssay (NCI)
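Grown in 96-well plates, cells were treated for 48 hours with each compound at five concentrations. Insufficient inhibition: endpoint recorded as highest concentration tested. GI50 is the concentration that inhibits growth by half. TGI denotes the concentration required for complete inhibition of growth.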

Assays:
Experiment in all cases: NCI-60 cell line screen, 48 h
786-0 renal = tested on: 786-0 renal
A498 renal = tested on: A498 renal
A549 NSCLC = tested on: A549 NSCLC
ACHN renal = tested on: ACHN renal
BT-549 breast = tested on: BT-549 breast
CAKI-1 renal = tested on: CAKI-1 renal
CCRF-CEM leukemia = tested on: CCRF-CEM leukemia
COLO 205 colon = tested on: COLO 205 colon
DU-145 prostate = tested on: DU-145 prostate
EKVX NSCLC = tested on: EKVX NSCLC
HCC-2998 colon = tested on: HCC-2998 colon
HCT-116 colon = tested on: HCT-116 colon
HCT-15 colon = tested on: HCT-15 colon
HL-60(TB) leukemia = tested on: HL-60(TB) leukemia
HOP-62 NSCLC = tested on: HOP-62 NSCLC
HS 578T breast = tested on: HS 578T breast
HT29 colon = tested on: HT29 colon
IGROV1 ovarian = tested on: IGROV1 ovarian
K-562 leukemia = tested on: K-562 leukemia
KM12 colon = tested on: KM12 colon
LOX IMVI melanoma = tested on: LOX IMVI melanoma
M14 melanoma = tested on: M14 melanoma
MALME-3M melanoma = tested on: MALME-3M melanoma
MCF7 breast = tested on: MCF7 breast
MDA-MB-231 breast = tested on: MDA-MB-231 breast
MDA-MB-435 = tested on: MDA-MB-435
MOLT-4 leukemia = tested on: MOLT-4 leukemia
NCI-H226 lung = tested on: NCI-H226 lung
NCI-H23 lung = tested on: NCI-H23 lung
NCI-H460 lung = tested on: NCI-H460 lung
NCI-H522 lung = tested on: NCI-H522 lung
NCI/ADR-RES ovarian = tested on: NCI/ADR-RES ovarian
OVCAR-3 ovarian = tested on: OVCAR-3 ovarian
OVCAR-4 ovarian = tested on: OVCAR-4 ovarian
OVCAR-5 ovarian = tested on: OVCAR-5 ovarian
OVCAR-8 ovarian = tested on: OVCAR-8 ovarian
PC-3 prostate = tested on: PC-3 prostate
RPMI-8226 leukemia = tested on: RPMI-8226 leukemia
RXF 393 renal = tested on: RXF 393 renal
SF-268 CNS = tested on: SF-268 CNS
SF-295 CNS = tested on: SF-295 CNS
SF-539 CNS = tested on: SF-539 CNS
SK-MEL-2 melanoma = tested on: SK-MEL-2 melanoma
SK-MEL-28 melanoma = tested on: SK-MEL-28 melanoma
SK-MEL-5 melanoma = tested on: SK-MEL-5 melanoma
SK-OV-3 ovarian = tested on: SK-OV-3 ovarian
SN12C renal = tested on: SN12C renal
SNB-19 CNS = tested on: SNB-19 CNS
SNB-75 CNS = tested on: SNB-75 CNS
SR leukemia = tested on: SR leukemia
SW-620 colon = tested on: SW-620 colon
T-47D breast = tested on: T-47D breast
TK-10 renal = tested on: TK-10 renal
U251 CNS = tested on: U251 CNS
UACC-257 melanoma = tested on: UACC-257 melanoma
UACC-62 melanoma = tested on: UACC-62 melanoma
UO-31 renal = tested on: UO-31 renal

C[n+]1c(/C=C\c2ccc(Cl)cc2)ccc2ccccc21
GI50 (786-0 renal): > 100 µM
TGI (786-0 renal): > 100 µM
GI50 (A498 renal): 4.02 µM
TGI (A498 renal): 91.3 µM
GI50 (A549 NSCLC): 1.04 µM
TGI (A549 NSCLC): > 100 µM
GI50 (ACHN renal): 81.6 µM
TGI (ACHN renal): > 100 µM
GI50 (BT-549 breast): 4.78 µM
TGI (BT-549 breast): 76.4 µM
GI50 (CAKI-1 renal): 66.6 µM
TGI (CAKI-1 renal): > 100 µM
GI50 (CCRF-CEM leukemia): 32.4 µM
TGI (CCRF-CEM leukemia): > 100 µM
GI50 (COLO 205 colon): 4.28 µM
TGI (COLO 205 colon): 24.4 µM
GI50 (DU-145 prostate): 89.8 µM
TGI (DU-145 prostate): > 100 µM
GI50 (EKVX NSCLC): 2.45 µM
TGI (EKVX NSCLC): > 100 µM
GI50 (HCC-2998 colon): 31.6 µM
TGI (HCC-2998 colon): > 100 µM
GI50 (HCT-116 colon): 12.6 µM
TGI (HCT-116 colon): > 100 µM
GI50 (HCT-15 colon): 53.2 µM
TGI (HCT-15 colon): > 100 µM
GI50 (HL-60(TB) leukemia): 24.2 µM
TGI (HL-60(TB) leukemia): > 100 µM
GI50 (HOP-62 NSCLC): 29.2 µM
TGI (HOP-62 NSCLC): > 100 µM
GI50 (HS 578T breast): 27.4 µM
TGI (HS 578T breast): > 100 µM
GI50 (HT29 colon): 19.4 µM
TGI (HT29 colon): > 100 µM
GI50 (IGROV1 ovarian): 27.2 µM
TGI (IGROV1 ovarian): > 100 µM
GI50 (K-562 leukemia): 8.69 µM
TGI (K-562 leukemia): > 100 µM
GI50 (KM12 colon): 3.6 µM
TGI (KM12 colon): 15 µM
GI50 (LOX IMVI melanoma): 37.4 µM
TGI (LOX IMVI melanoma): > 100 µM
GI50 (M14 melanoma): 12.9 µM
TGI (M14 melanoma): 46.7 µM
GI50 (MALME-3M melanoma): 11.9 µM
TGI (MALME-3M melanoma): 36.8 µM
GI50 (MCF7 breast): 20.2 µM
TGI (MCF7 breast): > 100 µM
GI50 (MDA-MB-231 breast): 38.9 µM
TGI (MDA-MB-231 breast): > 100 µM
GI50 (MDA-MB-435): 21.5 µM
TGI (MDA-MB-435): 66.4 µM
GI50 (MOLT-4 leukemia): > 100 µM
TGI (MOLT-4 leukemia): > 100 µM
GI50 (NCI-H226 lung): 72.1 µM
TGI (NCI-H226 lung): > 100 µM
GI50 (NCI-H23 lung): 31 µM
TGI (NCI-H23 lung): > 100 µM
GI50 (NCI-H460 lung): 32.7 µM
TGI (NCI-H460 lung): > 100 µM
GI50 (NCI-H522 lung): 12.4 µM
TGI (NCI-H522 lung): 89.4 µM
GI50 (NCI/ADR-RES ovarian): > 100 µM
TGI (NCI/ADR-RES ovarian): > 100 µM
GI50 (OVCAR-3 ovarian): 7.34 µM
TGI (OVCAR-3 ovarian): 31.4 µM
GI50 (OVCAR-4 ovarian): 12 µM
TGI (OVCAR-4 ovarian): > 100 µM
GI50 (OVCAR-5 ovarian): 4.36 µM
TGI (OVCAR-5 ovarian): > 100 µM
GI50 (OVCAR-8 ovarian): 6.82 µM
TGI (OVCAR-8 ovarian): 91.1 µM
GI50 (PC-3 prostate): 13.3 µM
TGI (PC-3 prostate): > 100 µM
GI50 (RPMI-8226 leukemia): 14.4 µM
TGI (RPMI-8226 leukemia): > 100 µM
GI50 (RXF 393 renal): 31.8 µM
TGI (RXF 393 renal): 98.3 µM
GI50 (SF-268 CNS): 29.8 µM
TGI (SF-268 CNS): > 100 µM
GI50 (SF-295 CNS): 13.8 µM
TGI (SF-295 CNS): > 100 µM
GI50 (SF-539 CNS): 15.9 µM
TGI (SF-539 CNS): 92.2 µM
GI50 (SK-MEL-2 melanoma): 21 µM
TGI (SK-MEL-2 melanoma): 50.3 µM
GI50 (SK-MEL-28 melanoma): 13.6 µM
TGI (SK-MEL-28 melanoma): 54.3 µM
GI50 (SK-MEL-5 melanoma): 5.56 µM
TGI (SK-MEL-5 melanoma): 18 µM
GI50 (SK-OV-3 ovarian): 46.6 µM
TGI (SK-OV-3 ovarian): > 100 µM
GI50 (SN12C renal): 4.13 µM
TGI (SN12C renal): 84 µM
GI50 (SNB-19 CNS): 4.49 µM
TGI (SNB-19 CNS): > 100 µM
GI50 (SNB-75 CNS): 23.2 µM
TGI (SNB-75 CNS): > 100 µM
GI50 (SR leukemia): 45.8 µM
TGI (SR leukemia): > 100 µM
GI50 (SW-620 colon): 4.1 µM
TGI (SW-620 colon): 63.4 µM
GI50 (T-47D breast): 21.8 µM
TGI (T-47D breast): > 100 µM
GI50 (TK-10 renal): > 100 µM
TGI (TK-10 renal): > 100 µM
GI50 (U251 CNS): 3.7 µM
TGI (U251 CNS): > 100 µM
GI50 (UACC-257 melanoma): 16.2 µM
TGI (UACC-257 melanoma): 62.4 µM
GI50 (UACC-62 melanoma): 17.7 µM
TGI (UACC-62 melanoma): 52 µM
GI50 (UO-31 renal): 72.5 µM
TGI (UO-31 renal): > 100 µM
